Measured values: article PMC5177629, “Selective Estrogen Receptor Modulators: Cannabinoid Receptor Inverse Agonists with Differential CB1 and CB2 Selectivity” (Frontiers in Pharmacology, 2016)
Entries after “also recorded” stand apart in the source; their conditions may differ. Marks after values point to notes of the source that are not given here.

Legend:
[1] = biological target: T1, human cannabinoid type-1 receptors (hCB1) (Homo sapiens, UniProt P21554); assay: [35S]GTPγS binding, CHO-hCB1 membranes; type: biochemical; conditions: [35S]GTPγS binding, CHO-hCB1, compared with AM-251
T1 construct: host or cells: CHO cells (CHO-hCB1), membranes or intact cells
Protocol: (§1) In short, pellets were thawed on ice, combined in a 40 ml glass Dounce homogenizer and homogenized in 20 ml of cold buffer (50 mM HEPES at pH 7.4, 3 mM MgCl2, and 1 mM EGTA) using 10 strokes. Homogenates were then centrifuged at 40,000 × g for 10 min at 4°C. After discarding the supernatant, pellets were homogenized and centrifuged twice more. Final pellets were re-suspended in ice-cold 50 mM HEPES, pH 7.4, aliquoted and stored at -80°C for future use. Protein concentration was determined the same day, prior to freezing, using BCA^TM Protein Assay (Thermo Fisher Scientific, Waltham, MA, USA).
(§2) Non-specific binding was defined by radioactivity remaining in the presence of 10 μM of non-radioactive GTPγS. All reactions were incubated for 30 min at 30°C, terminated by filtration through Whatman GF/B glass fiber filters (Brandel, Inc.) and followed by four 4 ml washes of ice cold filtration buffer (50 mM HEPES, pH 7.4) containing 0.1% bovine serum albumin. Filter punches of individual samples were placed in scintillation vials containing 4 mls of ScintiverseTM BD cocktail scintillation fluid (Fisher Scientific, Pittsburg, PA, USA). Final counts were determined using liquid scintillation spectrophotometry (Tri Carb 2100 TR Liquid Scintillation Analyzer, Packard Instrument Company, Meriden, CT, USA) after overnight incubation.
(§3) Statistical analyses were conducted by utilizing GraphPad Prism v6.0g (GraphPad Software, Inc.; San Diego, CA, USA). IC50 values from competition receptor binding curves were derived by non-linear regression. […] Non-linear regression analysis of concentration-effect curves was also used to determine potency (ED50 or IC50) and efficacy (Emax or Imax) for modulation of GTPγS and adenylyl cyclase activity, respectively. All IC50, EC50, Ki, and Kb values were converted to pEC50, pIC50, pKi, and pKb values in order to permit use of parametric statistical analyses. For all experiments comparing three or more values, an one-way ANOVA was employed, followed by Dunnett’s or Tukey’s post hoc tests. For comparisons of two values, an unpaired t-test was utilized. To determine significant radioligand displacement or modulation of G-protein activity compared to basal levels, a one-sample t-test was employed.
(§4) CBRs are coupled to Gi/Go type G-proteins. Therefore, binding of agonists to CBRs leads to G-protein activation, antagonists produce no effect, and inverse agonists reduce basal G-protein activity produced by constitutively active receptors. SERMs were screened by examining the ability of a single receptor saturating concentration (10 μM) to modulate G-protein activity in membranes prepared from CHO-hCB1 and CHO-hCB2 cells. G-protein activation was quantified using employing [^35S]GTPγS, a non-hydrolyzable analog of GTP, that irreversibly binds to the G-proteins when activated.

[2] = biological target: T2, human cannabinoid type-2 receptors (hCB2) (Homo sapiens, UniProt P34972); assay: [35S]GTPγS binding, CHO-hCB2 membranes; type: biochemical; conditions: for intrinsic activity at hCB2Rs (partial or full inverse agonist): [35S]GTPγS binding, CHO-hCB2, 10 μM, compared with AM-630
T2 construct: expressed in transfected cells; host or cells: CHO cells (CHO-hCB2), membranes or intact cells
Protocol: as §1, §2, §3, §4

[3] = biological target: T1, human cannabinoid type-1 receptors (hCB1); assay: Competition receptor binding with [3H]CP-55,940, CHO-hCB1 membranes; conditions: single 1 μM concentration, 0.2 nM [3H]CP-55,940, CHO-hCB1
Protocol: as §1
The final volume of each sample was 1 ml, containing 50 mM Tris-HCl buffer (pH 7.4), 0.05% bovine serum albumin, 5 mM MgCl2, increasing concentrations of non-radioactive competing SERM ligands, and either 100 μg of CHO-hCB1 or 50 μg of CHO-hCB2 membrane homogenates. […] Each sample condition was performed in triplicate and allowed to reach equilibrium at room temperature for 90 min. Reactions were terminated by rapid vacuum filtration through Whatman GF/B glass fiber filters (Brandel, Inc.), followed by four 4 ml washes of ice-cold filtration buffer (50 mM Tris at pH 7.4 and 0.05% BSA). Filter punches of individual samples were placed in scintillation vials containing 4 mls of ScintiverseTM BD cocktail scintillation fluid (Fisher Scientific, Pittsburg, PA, USA). Final counts were determined using liquid scintillation spectrophotometry (Tri Carb 2100 TR Liquid Scintillation Analyzer, Packard Instrument Company, Meriden, CT, USA) after overnight incubation.
as §3
(§5) For initial comparison of potential SERM binding to CBRs, 14 commercially available compounds from 5 structurally distinct classes (Figure 1) were subjected to a radioligand binding screen (Figure 2).

[4] = biological target: T2, human cannabinoid type-2 receptors (hCB2); assay: Adenylyl cyclase assay (forskolin-stimulated cAMP), intact CHO-hCB2 cells; type: cell-based
Protocol: (§6) Briefly, cells cultured between passages 4 and 15 were seeded into 24-well plates at a concentration of 6.5 million cells per plate and incubated overnight in a humidified incubator maintained at 37°C and 5% CO2. Growth media was removed the next day and replaced with media containing […] [^3H]adenine, 0.9g/L NaCl, and 0.5 mM isobutyl-methyl-xanthine (IBMX) for 2–3 h. Radioactive media was then removed and each well treated with 0.5 ml of varying concentrations of SERM compounds in a Krebs-Ringer-HEPES solution (10 mM HEPES, 110 mM NaCl, 25 mM Glucose, 55 mM Sucrose, 5 mM KCl, 1 mM MgCl2, 1.8 mM CaCl2, pH 7.4) containing 0.5 mM IBMX and 10 μM forskolin. Plates were then floated in a 37°C water bath for 15 min before reactions were terminated by addition of 50 μL of 2.2 N HCl to each well.
as §3
To provide a second measure of intrinsic activity, the ability of SERMs to modulate intracellular levels of cAMP in intact cells was examined (Figure 6). CBRs couple to Gi/Go-proteins, and thus cannabinoid agonists inhibit activity of the downstream intracellular effector adenylyl cyclase, reducing intracellular cAMP levels.

[5] = biological target: T2, human cannabinoid type-2 receptors (hCB2); assay: Antagonism of CP-55,940 inhibition of adenylyl cyclase, intact CHO-hCB2 cells; type: cell-based
Protocol: as §6
(§7) Reactions were then terminated by adding 50 μL of 2.2 N HCl to each well. [^3H]cAMP was isolated using alumina column chromatography and radioactivity quantified following addition of 10 mls of scintiverseTM BD cocktail scintillation fluid (Fisher Scientific, Pittsburg, PA, USA) by liquid scintillation spectrophotometry (Tri Carb 2100 TR Liquid Scintillation Analyzer, Packard Instrument Company, Meriden, CT, USA).
as §3
(§8) IC50 and Kb values were converted to pIC50 and pKb values (pIC50 = -Log[IC50] or pKb = -Log[Kb], respectively) to allow use of parametric statistics for comparison.

[6] = biological target: T2, human cannabinoid type-2 receptors (hCB2); assay: Competition receptor binding with [3H]CP-55,940, CHO-hCB2 membranes; conditions: single 1 μM concentration, 0.2 nM [3H]CP-55,940, CHO-hCB2
Protocol: as §1, with “Membrane homogenates were prepared for competition receptor binding and [^35S]GTPγS binding studies by using pellets previously frozen of CHO-hCB1 or CHO-hCB2 cells as described in ([Franks et al., 2014]). In” for “In”
The final volume of each sample was 1 ml, containing 50 mM Tris-HCl buffer (pH 7.4), 0.05% bovine serum albumin, 5 mM MgCl2, increasing concentrations of non-radioactive competing SERM ligands, and either 100 μg of CHO-hCB1 or 50 μg of CHO-hCB2 membrane homogenates. Non-specific binding was defined by radioactivity remaining in the presence of 1 μM of the non-radioactive CB1/CB2 agonist WIN-55,212-2. Each sample condition was performed in triplicate and allowed to reach equilibrium at room temperature for 90 min. Reactions were terminated by rapid vacuum filtration through Whatman GF/B glass fiber filters (Brandel, Inc.), followed by four 4 ml washes of ice-cold filtration buffer (50 mM Tris at pH 7.4 and 0.05% BSA). Filter punches of individual samples were placed in scintillation vials containing 4 mls of ScintiverseTM BD cocktail scintillation fluid (Fisher Scientific, Pittsburg, PA, USA). Final counts were determined using liquid scintillation spectrophotometry (Tri Carb 2100 TR Liquid Scintillation Analyzer, Packard Instrument Company, Meriden, CT, USA) after overnight incubation.
Statistical analyses were conducted by utilizing GraphPad Prism v6.0g (GraphPad Software, Inc.; San Diego, CA, USA). IC50 values from competition receptor binding curves were derived by non-linear regression. Experimental IC50 values were converted to Ki values (a measure of receptor affinity) by using the Cheng–Prusoff equation ([Cheng and Prusoff, 1973]). Non-linear regression analysis of concentration-effect curves was also used to determine potency (ED50 or IC50) and efficacy (Emax or Imax) for modulation of GTPγS and adenylyl cyclase activity, respectively. All IC50, EC50, Ki, and Kb values were converted to pEC50, pIC50, pKi, and pKb values in order to permit use of parametric statistical analyses. For all experiments comparing three or more values, an one-way ANOVA was employed, followed by Dunnett’s or Tukey’s post hoc tests. For comparisons of two values, an unpaired t-test was utilized. To determine significant radioligand displacement or modulation of G-protein activity compared to basal levels, a one-sample t-test was employed.
as §5

[7] = biological target: T1, human cannabinoid type-1 receptors (hCB1); assay: Antagonism of CP-55,940 inhibition of adenylyl cyclase, intact CHO-hCB1 cells; type: cell-based
Protocol: as §6, §7, §3, §8

T1 sequence (P21554 whole entry): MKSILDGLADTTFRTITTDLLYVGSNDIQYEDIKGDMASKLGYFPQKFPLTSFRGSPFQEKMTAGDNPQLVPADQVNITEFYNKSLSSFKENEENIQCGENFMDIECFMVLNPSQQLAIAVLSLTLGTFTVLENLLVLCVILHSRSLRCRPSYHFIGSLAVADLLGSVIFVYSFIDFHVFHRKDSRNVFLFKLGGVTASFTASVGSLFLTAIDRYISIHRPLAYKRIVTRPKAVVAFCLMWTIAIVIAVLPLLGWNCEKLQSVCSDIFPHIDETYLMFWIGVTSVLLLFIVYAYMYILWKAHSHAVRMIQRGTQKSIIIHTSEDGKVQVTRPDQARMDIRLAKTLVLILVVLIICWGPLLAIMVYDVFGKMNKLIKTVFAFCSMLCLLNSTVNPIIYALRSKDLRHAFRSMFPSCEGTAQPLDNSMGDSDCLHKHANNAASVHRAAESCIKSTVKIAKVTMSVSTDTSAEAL
T2 sequence (P34972 whole entry): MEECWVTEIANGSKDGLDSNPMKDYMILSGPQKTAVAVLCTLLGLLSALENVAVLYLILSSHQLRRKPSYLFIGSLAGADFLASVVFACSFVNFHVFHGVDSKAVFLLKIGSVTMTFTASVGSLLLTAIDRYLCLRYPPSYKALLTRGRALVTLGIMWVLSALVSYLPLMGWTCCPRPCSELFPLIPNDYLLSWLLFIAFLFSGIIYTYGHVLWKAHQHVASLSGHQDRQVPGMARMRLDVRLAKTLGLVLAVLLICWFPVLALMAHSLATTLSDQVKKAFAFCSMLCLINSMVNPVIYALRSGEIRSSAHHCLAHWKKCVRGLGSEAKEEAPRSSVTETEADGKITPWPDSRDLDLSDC

Compound: CC(C)N1CCN(c2ccc(C(=O)c3c(-c4ccc(O)cc4)sc4cc(O)ccc34)cc2)CC1 [Y-134]
- intrinsic activity at CB1Rs (partial or full inverse agonist) [1]: partial
- intrinsic activity at hCB2Rs (partial or full inverse agonist) [2]: partial inverse agonist activity

Compound: CC/C(=C(\c1ccc(O)cc1)c1ccc(OCCNC)cc1)c1ccccc1 [ENDX, endoxifen]
- displacement of [3H]CP-55,940 from hCB1Rs [3]: approximately 50%

Compound: COc1ccc(C(=O)c2c(C)n(CCN3CCOCC3)c3cc(I)ccc23)cc1 [AM-630]
- reduction of G-protein activity, hCB2Rs ([2]; CHO-hCB2 membranes, 10 μM): 34%
- EMAX, Intracellular [3H]cAMP ([4]; elevation of cAMP): 214 ± 6.5^b %
- EC50 ([4]; increase of cAMP, 10 μM forskolin, read-out: EC50, Intracellular [3H]cAMP): 398 nM
- pEC50, Intracellular [3H]cAMP ([4]; mean ± SEM): 6.40 ± 0.096^c
- fold parallel shift-to-the-right of CP-55,940 concentration-effect curve, CHO-hCB2 ([5]; AM-630 1 μM pre-incubation): 33 fold
- IMAX of CP-55,940 after pre-incubation with the drug ([5]; CHO-hCB2 cells, pre-incubation 30 min: OSP, NAF 10 μM, RAL, BAZ 2 μM, AM-630 1 μM): 31.7 ± 0.3%
- Kb ([5]; calculated from shift of CP-55,940 curve, intact CHO-hCB2 cells, read-out: Kb (antagonist dissociation constant), CHO-hCB2): 55.4 nM
- pKb, CHO-hCB2 ([5]; intact CHO-hCB2 cells, mean ± SEM): 7.26 ± .064^b

Compound: 4-hydroxy-tamoxifen [4OH-TX]
- displacement of [3H]CP-55,940 from hCB1Rs [3]: approximately 50%
- intrinsic activity at CB1Rs (partial or full inverse agonist) [1]: partial

Compound: Oc1ccc2c(c1)CC[C@H](c1ccccc1)[C@@H]2c1ccc(OCCN2CCCC2)cc1 [LAS, lasofoxifene]
- intrinsic activity at hCB2Rs (partial or full inverse agonist) [2]: partial inverse agonist activity

Compound: CC1=C(c2ccc(O)cc2)[C@H](c2ccc(OCCN3CCCCC3)cc2)Oc2cc(O)ccc21 [acolbifene]
- displacement of [3H]CP-55,940 from hCB1Rs [3]: fails to displace; also recorded: did not produce any displacement
- displacement of [3H]CP-55,940 from hCB2Rs [6]: fails to displace; also recorded: did not produce any displacement

Compound: CN(C)CCOc1ccc(/C(=C(/CCCl)c2ccccc2)c2ccc(O)cc2)cc1 [4OH-TOR, 4-hydroxy-toremifene]
- displacement of [3H]CP-55,940 from hCB1Rs [3]: approximately 50%

Compound: Cc1c(C(=O)NN2CCOCC2)nn(-c2ccc(Cl)cc2Cl)c1-c1ccc(I)cc1 [AM-281]
- fold decrease in potency of CP-55,940, CHO-hCB1 ([7]; AM-281 1 μM pre-incubation): 16 fold
- IMAX of CP-55,940 after pre-incubation with the drug ([7]; CHO-hCB1 cells, pre-incubation 30 min: OSP, NAF, BAZ 10 μM, RAL 2 μM, AM-281 1 μM): 35.7 ± 0.9%
- Kb ([7]; calculated from shift of CP-55,940 curve, intact CHO-hCB1 cells, read-out: Kb (antagonist dissociation constant), CHO-hCB1): 155 nM
- pKb, CHO-hCB1 ([7]; intact CHO-hCB1 cells, mean ± SEM): 6.810 ± 0.061^a
